In the supplement of paper PMC13380429:

Key:
Settings in all cases: 72 h
Vero E6 [1] = assay: drug sensitivity score (DSS) for viability; higher = more toxic; extreme values may be limits of the assay
U2OS [2] = assay: as above
HepG2 [3] = assay: as above
Calu-3 [4] = assay: as above
Caco-2 [5] = assay: as above
Vero E6 [6] = assay: relative viability EC50 (midpoint between 100% and the lowest measured viability); higher = less toxic
U2OS [7] = assay: as above
HepG2 [8] = assay: as above
Calu-3 [9] = assay: as above
Caco-2 [10] = assay: as above
Vero E6 [11] = assay: cell viability relative to DMSO; higher = less toxic
U2OS [12] = assay: as above
HepG2 [13] = assay: as above
Calu-3 [14] = assay: as above
Caco-2 [15] = assay: as above

Row | SMILES | drug sensitivity score (Vero E6 [1]) | drug sensitivity score (U2OS [2]) | drug sensitivity score (HepG2 [3]) | drug sensitivity score (Calu-3 [4]) | drug sensitivity score (Caco-2 [5]) | relative viability EC50 (Vero E6 [6]) | relative viability EC50 (U2OS [7]) | relative viability EC50 (HepG2 [8]) | relative viability EC50 (Calu-3 [9]) | relative viability EC50 (Caco-2 [10]) | cell viability (Vero E6 [11]; 1 nM) | cell viability (Vero E6 [11]; 10 nM) | cell viability (Vero E6 [11]; 100 nM) | cell viability (Vero E6 [11]; 1000 nM) | cell viability (Vero E6 [11]; 10000 nM) | cell viability (U2OS [12]; 1 nM) | cell viability (U2OS [12]; 10 nM) | cell viability (U2OS [12]; 100 nM) | cell viability (U2OS [12]; 1000 nM) | cell viability (U2OS [12]; 10000 nM) | cell viability (HepG2 [13]; 1 nM) | cell viability (HepG2 [13]; 10 nM) | cell viability (HepG2 [13]; 100 nM) | cell viability (HepG2 [13]; 1000 nM) | cell viability (HepG2 [13]; 10000 nM) | cell viability (Calu-3 [14]; 1 nM) | cell viability (Calu-3 [14]; 10 nM) | cell viability (Calu-3 [14]; 100 nM) | cell viability (Calu-3 [14]; 1000 nM) | cell viability (Calu-3 [14]; 10000 nM) | cell viability (Caco-2 [15]; 1 nM) | cell viability (Caco-2 [15]; 10 nM) | cell viability (Caco-2 [15]; 100 nM) | cell viability (Caco-2 [15]; 1000 nM) | cell viability (Caco-2 [15]; 10000 nM)
1 | CCOC(=O)C1=C(C)NC(C)=C(C(=O)OC)[C@@H]1c1cccc([N+](=O)[O-])c1 (racemic) [nitrendipine] | 0 | 0 | 0 | 0 | 0 | > 10 µM | > 10 µM | > 10 µM | > 10 µM | > 10 µM | 102% | 106% | 98.5% | 105% | 103% | 98.5% | 96.9% | 98.7% | 95.4% | 95.6% | 108% | 102% | 89% | 104% | 92.7% | 89.5% | 92.3% | 105% | 86.5% | 87.1% | 81.3% | 92.4% | 96.2% | 90.2% | 82.9%
2 | CC(C)C[C@@H]1NC(=O)[C@@H](C(C)C)NC(=O)[C@@H]2CCCN2C(=O)[C@@H](CC(=O)O)NC(=O)[C@@H](Cc2c[nH]c3ccccc23)NC1=O [BQ-123] | 0 | 0 | 0 | 0 | 0 | > 10 µM | > 10 µM | > 10 µM | > 10 µM | > 10 µM | 96.2% | 102% | 92.2% | 99.7% | 104% | 99.7% | 96% | 101% | 95% | 101% | 95.4% | 100% | 98% | 110% | 108% | 93.7% | 94.5% | 95.8% | 90.6% | 100% | 96.4% | 93.2% | 103% | 91.4% | 109%
3 | CN=c1nc(-c2ccccc2)n(-c2ccccc2)s1 | 0 | 0 | 0 | 0 | 0 | > 10 µM | > 10 µM | > 10 µM | > 10 µM | > 10 µM | 97.8% | 99.3% | 96.7% | 101% | 87.9% | 95.5% | 98.1% | 93.4% | 96.9% | 93.8% | 98.4% | 99.8% | 98% | 92.2% | 95.7% | 110% | 101% | 95.8% | 89.9% | 96% | 97.2% | 105% | 97% | 97.7% | 89%
4 | COc1ccc(N2CCOCC2)c2sc(NC(=O)N3CCC(C)(O)CC3)nc12 [tozadenant] | 0 | 0 | 0 | 0 | 0 | > 10 µM | > 10 µM | > 10 µM | > 10 µM | > 10 µM | 94.5% | 106% | 90.6% | 94.3% | 101% | 103% | 95.7% | 102% | 98.9% | 103% | 85.8% | 99.4% | 109% | 99.7% | 98.2% | 87.7% | 94.1% | 87.3% | 101% | 97.4% | 90.8% | 95.5% | 110% | 96.1% | 98%
5 | c1ccc([C@@H]2C[C@H]2NC2CCNCC2)cc1 [GSK-LSD-1] | 0 | 0 | 0 | 0 | 0 | > 10 µM | > 10 µM | > 10 µM | > 10 µM | > 10 µM | 97.1% | 99.4% | 96.4% | 101% | 95.6% | 102% | 98.1% | 104% | 94.6% | 104% | 92.6% | 96.4% | 93% | 98.8% | 97.2% | 102% | 88% | 96.8% | 95.8% | 93.4% | 98.5% | 95.2% | 96.5% | 87.1% | 92.2%
6 | CC(=O)OC[C@H](N)C(=O)O [O-acetyl-L-serine] | 0 | 0 | 0 | 0 | 0 | > 10 µM | > 10 µM | > 10 µM | > 10 µM | > 10 µM | 114% | 89.8% | 99.2% | 103% | 104% | 104% | 104% | 99.3% | 105% | 98.9% | 115% | 103% | 106% | 110% | 95.2% | 111% | 97.6% | 105% | 92.5% | 97.1% | 104% | 109% | 90.3% | 106% | 94.9%
7 | O=C1NCN(c2ccccc2)C12CCN(CCCC(c1ccc(F)cc1)c1ccc(F)cc1)CC2 [fluspirilene] | 0 | 0 | 1.1 | 0 | 0 | > 10 µM | > 10 µM | > 10 µM | > 10 µM | > 10 µM | 115% | 98.1% | 103% | 103% | 93.7% | 98.4% | 103% | 98.1% | 105% | 90.5% | 112% | 100% | 101% | 88.5% | 84.8% | 101% | 104% | 99.4% | 105% | 105% | 88.3% | 106% | 80.5% | 116% | 99%
8 | C=CCN1CCN(c2nc3ccccc3nc2C#N)CC1 [3-AQC] | 0 | 0 | 0 | 0 | 0 | > 10 µM | > 10 µM | > 10 µM | > 10 µM | > 10 µM | 94.9% | 102% | 92.6% | 104% | 108% | 100% | 101% | 101% | 97.9% | 97.1% | 94% | 104% | 96.6% | 97.5% | 94.2% | 94.7% | 98% | 101% | 103% | 98.1% | 102% | 99.9% | 103% | 101% | 95.2%
9 | C1=Cc2cccc(OCC3CNCCO3)c2C1 (stereo not given) [indeloxazine] | 0 | 0 | 0 | 0 | 2.3 | > 10 µM | > 10 µM | > 10 µM | > 10 µM | > 10 µM | 104% | 106% | 102% | 102% | 93.8% | 95.2% | 97.8% | 101% | 99.3% | 96.8% | 105% | 111% | 104% | 93.1% | 91.7% | 105% | 93.8% | 104% | 97.1% | 97.8% | 101% | 94.2% | 86.4% | 88.9% | 90.3%
10 | Brc1c(NC2=NCCN2)ccc2nccnc12 [brimonidine] | 0 | 0 | 0 | 0 | 0 | > 10 µM | > 10 µM | > 10 µM | > 10 µM | > 10 µM | 99% | 102% | 97.5% | 100% | 102% | 100% | 105% | 99.6% | 96.6% | 106% | 98.1% | 97.6% | 96.7% | 107% | 105% | 103% | 98.1% | 88.1% | 97.2% | 103% | 107% | 97.2% | 108% | 90.7% | 103%
11 | Cc1onc(-c2ccccc2)c1-c1ccc(S(N)(=O)=O)cc1 [valdecoxib] | 0 | 0 | 0 | 0 | 0 | > 10 µM | > 10 µM | > 10 µM | > 10 µM | > 10 µM | 102% | 99.1% | 106% | 93.8% | 99.5% | 96.5% | 94.9% | 97.8% | 99.5% | 98.5% | 89.6% | 95.3% | 97.5% | 96% | 96.1% | 95.6% | 104% | 105% | 96.9% | 106% | 103% | 97.5% | 98% | 93.4% | 93.6%
